In US11629341B2, “Method for producing selenoneine” (KIKKOMAN CORPORATION, priority 2015, dated 2023):

Columns and labels:
E. coli = assay: main culture of transformed E. coli in TY medium containing selenocystine; format: cell-based; details: TY++ line: 0.1 mM selenocystine present during the initial stage of culture, 25° C.
Description: In a 19 ml test tube, each of the bacterial strains shown in Table 13 was inoculated into 2.5 ml of a TY medium. The inoculated medium was then seed-cultured at 37° C. for 16 hours while agitated at 180 rpm. In a 19 ml test tube, 20 μl of the seed culture was inoculated into 2.5 ml of a TY medium containing ampicillin and 0.5 mM IPTG. The inoculated medium was then main-cultured at 25° C. for 20.5 hours while agitated at 180 rpm. Three different lines of TY medium were prepared for the main culture: a TY medium containing 0.1 mM selenocystine (TY++), a TY medium containing 0.01 mM selenocystine (TY+), and a TY medium to which selenocystine was added to 0.01 mM six hours after the start of culture (TY+∘).
In addition, the amount of selenoneine produced by the (EcEgtA+EcEgtC) transformant was higher than that of the EcEgtA transformant and the difference between the two transformants was more significant in the culture supernatants.

[1] = compared with ergothioneine; cited from earlier work

| Structure (SMILES) | growth inhibition (E. coli) | antioxidant activity relative to ergothioneine [1] |
| --- | --- | --- |
| N[C@@H](C[Se][Se]C[C@H](N)C(=O)O)C(=O)O [selenocystine] | caused growth inhibition | – |
| C[N+](C)(C)[C@@H](Cc1cnc([Se-])[nH]1)C(=O)O [selenoneine] | – | 1,000 times |
